Where two headings read alike, the source gives them in different places.
Key:
[1] = system: human iPS cell Toe strain; experiment: Effect to promote differentiation from human iPS cells into insulin-producing cells (insulin-positive cell rate, imaging); assay type: cell-based; parameters: key to Activity: +: the sum of activity values at the two concentrations was obviously higher than the control untreated with compounds while being lower than the positive control; ++: the sum was equivalent to the positive control; +++: the sum was higher than the positive control; settings: for EC50: efficacy of 10 μM of the compound of Example 1 taken as 100%, 0.01 to 10 μM, read-out: E050; for Activity: sum of activity values at 2 μM and 10 μM compared with positive control (compound of Example 1), added at stages 3 to 5
Excerpt: The evaluation system of the effect (efficacy) to promote differentiation from human iPS cells into insulin-producing cells was constructed with reference to known information (Non Patent Document 6). Further, the medium used in each differentiation stage was also produced with reference to known information (differentiation media A to E (Media A to E) described in Non Patent Document 6 were used respectively for stages 1 to 5; however, a medium free from GLP-1 receptor agonist and nicotinamide was used as differentiation medium E).
In order to evaluate the efficacy of each compound, the compound of Example 1 was used as a positive control, and dimethylsulfoxide (DMSO) (SIGMA, D2650) with a final concentration of 0.1% was used as a control untreated with compounds. […] In the following evaluation, the compound solutions were added to the medium to 0.1% that is the final concentration of DMSO. First, induction from human iPS cell Toe strain (National Institutes of Biomedical Innovation, Health and Nutrition) into cells on day 7 of culture (2 days after replacement with differentiation medium C (cells in the differentiation process from FOXA2-positive primitive gut tube cells into PDX1-positive pancreatic progenitor cells)) was performed according to the method of Non Patent Document 6 for “inducing differentiation from human iPS cells into pancreatic β cells”, and the cells were collected and thereafter stored in liquid nitrogen using Bambanker (NIPPON Genetics Co, Ltd.) at 1×10^7 cells/mL/tube, to produce a cell stock for evaluation. The cell stock was dissolved at the start of the evaluation of efficacy, suspended in differentiation medium C for stage 3 (DMEM high glucose (Life technologies, 11965092), 0.25 μM SANT-1, 0.1 μM LDN193189 (Stemgent, 04-0074), 10 μM SB431542, 2 μM Retinoic acid (Stemgent, 04-0021), 1% B27 serum free supplement (Life technologies, 17504044) and thereafter seeded in a 96-well plate (Corning, #3340) coated with Synthemax II (Corning, #5656) at 1×10^5 cells/well. After culturing for 2 days, the medium was removed, and new differentiation medium C for stage 3 with the compound or only DMSO added was added thereto at 100 μL/well. After culturing for 2 days, the medium was removed, and new differentiation medium D for stage 4 (DMEM high glucose, 0.1 μM LDN193189, 5 μM TGF-β type I receptor kinase inhibitor II (Calbiochem 616452), 0.3 μM (−)-indolactam V (Enzo life science ALX-420-011-C300), 1% B27 serum free supplement) with the compound or only DMSO added was added thereto at 100 μL/well. After culturing for 2 to 3 days, the medium was removed, and new differentiation medium E for stage 5 (GLP-1 receptor agonist and nicotinamide-free; Knockout […] (Life technologies, 12660012), 1% B27 serum free supplement) with the compound or only DMSO added was added thereto at 200 μL/well. After culturing for 2 days, the medium was removed, and a 4% paraformaldehyde phosphorus acid buffer (Wako, 163-20145) was added thereto at 150 μL/well and left standing for 30 to 60 minutes at room temperature to fix the cells. A phosphorus acid buffer (PBS) (Takara, T9181) containing 1% Triton X-100 (Sigma, T8787) was left standing for 15 minutes at room temperature, then washed with PBS-T (Takara, T9183), and was blocked for 1 hour using 20% Blocking One (Nacalai tesque, Tokyo, Japan) diluted with PBS-T at room temperature. After the removal of Blocking One, guinea pig anti-insulin antibody (Abcam, ab7842) diluted 200-fold with 20% Blocking One was added thereto at 50 μL/well, followed by standing at 4° C. overnight. After washing with PBS-T 3 times, […]-labeled anti-guinea pig antibody (Life Technologies, A11075) diluted 1000-fold with 20% Blocking One and 6-diamidino-2-phenylindole (DAPI) (Roche Diagnostics, Basel, Switzerland) were added thereto, followed by standing at room temperature for 2 hours. After washing with PBS-T 3 times, the fluorescence images of the cells were analyzed. […]

UCHL1 = target: T1, UCHL1 (Homo sapiens, UniProt P09936); experiment: Evaluation of UCHL1 activation (ubiquitin-AMC hydrolysis); settings: test compound 10 μM; control (DMSO) = 100; fluorescence increment 10 minutes to 2 hours; n=3
T1 sequence (P09936 1-223): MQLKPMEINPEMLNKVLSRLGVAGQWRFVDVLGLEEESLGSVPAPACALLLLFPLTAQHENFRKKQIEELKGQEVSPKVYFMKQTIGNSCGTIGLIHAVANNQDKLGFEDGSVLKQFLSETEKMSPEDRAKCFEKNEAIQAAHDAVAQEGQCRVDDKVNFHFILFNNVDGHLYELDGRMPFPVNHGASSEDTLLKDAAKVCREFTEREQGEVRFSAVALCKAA
Description: Using dimethylsulfoxide (DMSO) (SIGMA, D2650) as a control untreated with compounds (which will be hereinafter referred to as control), each test compound was dissolved in DMSO in use. DMSO and the test compound solutions were each added to the enzymatic reaction solution to a final concentration of 2%. […] The amount of fluorescence (excitation wavelength: 350 nm and fluorescence wavelength: 440 nm) of AMC generated due to hydrolysis of the fluorescence-labeled substrate was measured 10 minutes and 2 hours after the start of the enzymatic reaction, to calculate the increment in amount of fluorescence by subtraction between the two.
The amount of fluorescence of AMC was measured using Envision (PerkinElmer). The increment in amount of fluorescence of the control was taken as 100%, and the increment in amount of fluorescence of each test compound was expressed as a percentage (%) based on this, to obtain an enzymatic activity value. Enzymatic activity value (%)={(Amount of fluorescence increment of each test compound)/(Amount of fluorescence increment of control)}×100

ZDF disease rats = experiment: Glucose tolerance test after 4 weeks repeated oral administration in ZDF rats; assay type: in vivo, rat; settings: 10 mg/kg orally once a day for 4 weeks; Day 28; 60 minutes after 2 g/kg glucose loading minus before loading; male ZDF disease rats
Description: After repeated oral administration of the compound according to Example 9 to 8 week-old male ZDF disease rats (CHARLES RIVER LABORATORIES JAPAN, INC.) for 4 weeks (from Day 1 to 28), a glucose tolerance test was conducted on Day 28 to investigate the effect to improve the pathological conditions of diabetes. On Day 0, the ZDF disease rats were subjected to measurement of blood sugar, insulin value, and body weight, as needed, and were grouped by multivariable block assignment. The experiments were conducted in a total of 3 groups of 4 male ZDF Lean rats (lean group), a group of 8 ZDF disease rats with a 0.5 w/v % methylcellulose 400 solution (which will be hereinafter referred to as 0.5% MC) administered (vehicle group), and a group of 8 ZDF disease rats with the compound of Example 9 administered (Example 9 group). The compound according to Example 9 was suspended in 0.5% MC and was orally administered 10 mg/kg once a day.
The glucose tolerance test was conducted as follows. […] Before the glucose loading and 60 minutes after the glucose loading, blood was collected from the tail vein, and the blood sugar was measured.
The blood sugar was measured using glucose C2-Test Wako (Cat No. 437-90902 for 700 times, available from Wako Pure Chemical Industries, Ltd).

SMILES | EC50 ([1]; Homo sapiens) | further results
O=C1CCC(C(=O)Nc2nc3ccc(-c4ccc(OC(F)(F)F)cc4)cc3s2)n2cccc21 (centres unmarked) [Example 59, 8-Oxo-N-[6-[4-(trifluoromethoxy)phenyl]-1,3-benzothiazol-2-yl]-6,7-dihydro-5H-indolizine-5-carboxamide] | 540 nM | –
O=C1CCC(C(=O)Nc2ncc(-c3ccc(C(F)(F)F)cc3)s2)n2cccc21 (centres unmarked) [Example 21, 8-Oxo-N-[5-[4-(trifluoromethyl)phenyl]thiazol-2-yl]-6,7-dihydro-5H-indolizine-5-carboxamide] | 450 nM | –
Cc1ccc(-c2cnc(NC(=O)C3CCC(=O)c4cccn43)s2)cc1 (centres unmarked) [Example 18] | – | Activity [1]: ++
O=C1CCC(C(=O)Nc2nc3ccc(-c4ccc(Cl)cc4)cc3s2)n2cccc21 (centres unmarked) [Example 93, N-[6-(4-Chlorophenyl)-1,3-benzothiazol-2-yl]-8-oxo-6,7-dihydro-5H-indolizine-5-carboxamide] | 290 nM | –
O=C1CCC(C(=O)Nc2ncc(-c3ccc(OCc4ccccc4)c(F)c3)s2)n2cccc21 (centres unmarked) [Example 43, N-[5-(4-Benzyloxy-3-fluorophenyl)thiazol-2-yl]-8-oxo-6,7-dihydro-5H-indolizine-5-carboxamide] | 190 nM | –
O=C1CCC(C(=O)Nc2ncc(-c3ccc(OC(F)(F)F)c(Cl)c3)s2)n2cccc21 (centres unmarked) [Example 30, N-[5-[3-Chloro-4-(trifluoromethoxy)phenyl]thiazol-2-yl]-8-oxo-6,7-dihydro-5H-indolizine-5-carboxamide] | 1000 nM | –
Cc1nc(NC(=O)C2CCC(=O)c3cccn32)sc1-c1ccc(OC(C)(C)C)cc1 (single isomer, unassigned) [Example 101a] | – | Activity [1]: +
Cc1nc(NC(=O)C2CCC(=O)c3cccn32)sc1-c1ccc(OC(C)(C)C)cc1 (centres unmarked) [Example 35, N-[5-(4-tert-Butoxyphenyl)-4-methylthiazol-2-yl]-8-oxo-6,7-dihydro-5H-indolizine-5-carboxamide] | 250 nM | –
O=C1CCC(C(=O)Nc2ncc(-c3ccc(OC(F)(F)F)cc3)s2)n2cccc21 (centres unmarked) [Example 9, 8-Oxo-N-[5-[4-(trifluoromethoxy)phenyl]thiazol-2-yl]-6,7-dihydro-5H-indolizine-5-carboxamide] | 230 nM | Enzyme activity (c/o) (UCHL1): 270 c/o; Δ Plasma glucose (ZDF disease rats): -275.8 mg/dL
Cc1nc(NC(=O)C2CCC(=O)c3cccn32)sc1-c1ccc(OC(F)(F)F)cc1 (centres unmarked) [Example 36, N-[4-Methyl-5-[4-(trifluoromethoxy)phenyl]thiazol-2-yl]-8-oxo-6,7-dihydro-5H-indolizine-5-carboxamide] | 310 nM | –
O=C1CCC(C(=O)Nc2ncc(-c3ccc(OC(F)(F)F)cc3)s2)n2cccc21 (single isomer, unassigned) [Example 10b] | – | EC50 [1]: 220 nM; Activity [1]: +++
Cc1nc(NC(=O)C2CCC(=O)c3cccn32)sc1-c1ccc(OC(C)(C)C)cc1 (single isomer, unassigned) [Example 101b] | 90 nM | Enzyme activity (c/o) (UCHL1): 318 c/o; Activity [1]: +++
O=C1CCC(C(=O)Nc2ncc(-c3ccc4c(c3)OC(F)(F)O4)s2)n2cccc21 (centres unmarked) [Example 40, N-[5-(2,2-Difluoro-1,3-benzodioxol-5-yl)thiazol-2-yl]-8-oxo-6,7-dihydro-5H-indolizine-5-carboxamide] | 820 nM | –
O=C1CCC(C(=O)Nc2ncc(-c3ccc4ccccc4c3)s2)n2cccc21 (centres unmarked) [Example 24, N-[5-(2-Naphthyl)thiazol-2-yl]-8-oxo-6,7-dihydro-5H-indolizine-5-carboxamide] | – | Activity [1]: +
CC(C)(C)Oc1ccc(-c2cnc(NC(=O)C3CCC(=O)c4cccn43)s2)cc1 (centres unmarked) [Example 11, N-[5-(4-Tert-butoxyphenyl)thiazol-2-yl]-8-oxo-6,7-dihydro-5H-indolizine-5-carboxamide] | 490 nM | –
O=C1CCC(C(=O)Nc2ncc(-c3ccc(OC(F)(F)F)cc3)s2)n2cccc21 (single isomer, unassigned) [Example 10a] | – | EC50 [1]: 1200 nM; Activity [1]: +++
O=C1CCC(C(=O)Nc2ncc(-c3ccccc3)s2)n2cccc21 (centres unmarked) [Example 1, 8-Oxo-N-(5-phenylthiazol-2-yl)-6,7-dihydro-5H-indolizine-5-carboxamide] | 5800 nM | –
O=C1CCC(C(=O)Nc2ncc(-c3ccc(Oc4ccccc4)cc3)s2)n2cccc21 (centres unmarked) [Example 46, 8-Oxo-N-[5-(4-phenoxyphenyl)thiazol-2-yl]-6,7-dihydro-5H-indolizine-5-carboxamide] | 540 nM | –
O=C1CCC(C(=O)Nc2ncc(-c3ccc(OCC(F)(F)F)cc3)s2)n2cccc21 (centres unmarked) [Example 45, 8-Oxo-N-[5-[4-(2,2,2-trifluoroethoxy)phenyl]thiazol-2-yl]-6,7-dihydro-5H-indolizine-5-carboxamide] | 130 nM | –
CC1(C(=O)Nc2ncc(-c3ccc(OC(F)(F)F)cc3)s2)CCC(=O)c2cccn21 (centres unmarked) [Example 65] | 1800 nM | –
O=C1CC(C(=O)Nc2ncc(-c3ccc(OC(F)(F)F)cc3)s2)n2cccc21 (centres unmarked) [Example 58] | 1600 nM | –
Cc1nc(NC(=O)C2CCC(=O)c3cccn32)sc1-c1ccc(OCC(F)(F)F)cc1 (centres unmarked) [Example 88, N-[4-Methyl-5-[4-(2,2,2-trifluoroethoxy)phenyl]thiazol-2-yl]-8-oxo-6,7-dihydro-5H-indolizine-5-carboxamide] | 240 nM | Enzyme activity (c/o) (UCHL1): 422 c/o
